Reference: ChEMBL document CHEMBL1201861, “Genomics of Drug Sensitity in Cancer screening data, Wellcome Trust Sanger Institute”

Key:
Experiment in all cases: cells
[1] = system: KLE; type: functional, cell-based; details: Homo sapiens;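 further: growth inhibition of human KLE cells, read out with a cell viability assay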
Description: SANGER: Inhibition of human KLE cell growth in a cell viability assay.

[2] = system: PSN1; type: functional, cell-based, Homo sapiens; details: Homo sapiens, PSN1;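 further: suppression of growth of human PSN1 cells, read out by a cell viability assay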
Description: SANGER: Inhibition of human PSN1 cell growth in a cell viability assay.

[3] = system: Ramos-2G6-4C10; type: functional, cell-based, Homo sapiens; details: Homo sapiens, Ramos-2G6-4C10;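 further: growth inhibition of the cell line, measured by a cell viability read-out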
Description: SANGER: Inhibition of human Ramos-2G6-4C10 cell growth in a cell viability assay.

[4] = system: ES8; type: functional, cell-based, Homo sapiens; details: Homo sapiens, ES8;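 further: growth inhibition of human ES8 cells, read out with a cell viability assay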
Description: SANGER: Inhibition of human ES8 cell growth in a cell viability assay.

[5] = system: EW-13; type: functional, cell-based, Homo sapiens; details: Homo sapiens, EW-13; read-out: IC50;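 further: growth inhibition of EW-13 cells, read out with a cell viability assay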
Description: SANGER: Inhibition of human EW-13 cell growth in a cell viability assay.

[6] = system: SNU1; type: functional, cell-based, Homo sapiens; details: Homo sapiens, SNU1;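 further: growth inhibition of human NCI-SNU-1 cells, measured with a cell viability assay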
Description: SANGER: Inhibition of human NCI-SNU-1 cell growth in a cell viability assay.

[7] = system: MHH-NB-11; type: functional, cell-based, Homo sapiens; details: Homo sapiens, MHH-NB-11;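 further: growth inhibition of human MHH-NB-11 cells, read out by a cell viability assay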
Description: SANGER: Inhibition of human MHH-NB-11 cell growth in a cell viability assay.

[8] = system: MEG-01; type: functional, cell-based, Homo sapiens; details: Homo sapiens, MEG-01;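 further: growth inhibition of MEG-01 cells, read out by a cell viability assay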
Description: SANGER: Inhibition of human MEG-01 cell growth in a cell viability assay.

[9] = system: KARPAS-299; type: functional, cell-based, Homo sapiens; details: Homo sapiens, KARPAS-299
Description: SANGER: Inhibition of human KARPAS-299 cell growth in a cell viability assay.

[10] = system: HH; type: functional, cell-based, Homo sapiens; details: Homo sapiens, HH
Description: SANGER: Inhibition of human HH cell growth in a cell viability assay.

[11] = system: NH-12; type: functional, cell-based, Homo sapiens; details: Homo sapiens, NH-12;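 further: growth inhibition of NH-12 cells, read out with a cell viability assay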
Description: SANGER: Inhibition of human NH-12 cell growth in a cell viability assay.

[12] = system: ES6; type: functional, cell-based; details: Homo sapiens;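 further: growth inhibition of human ES6 cells, read out with a cell viability assay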
Description: SANGER: Inhibition of human ES6 cell growth in a cell viability assay.

[13] = system: TE-12; type: functional, cell-based, Homo sapiens; details: Homo sapiens, TE-12;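 further: growth inhibition of TE-12 cells, read out by a cell viability assay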
Description: SANGER: Inhibition of human TE-12 cell growth in a cell viability assay.

[14] = system: CCRF-CEM; type: functional, cell-based, Homo sapiens; details: Homo sapiens, CCRF-CEM;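 further: inhibition of CCRF-CEM cell growth, measured by a cell viability assay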
Description: SANGER: Inhibition of human CCRF-CEM cell growth in a cell viability assay.

[15] = system: DSH1; type: functional, cell-based; details: Homo sapiens;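 further: growth inhibition of human DSH1 cells, measured with a cell viability readout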
Description: SANGER: Inhibition of human DSH1 cell growth in a cell viability assay.

[16] = system: GB-1; type: functional, cell-based, Homo sapiens; details: Homo sapiens, GB-1;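 further: growth of GB-1 cells judged by a viability assay, IC50 marks the concentration inhibiting growth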
Description: SANGER: Inhibition of human GB-1 cell growth in a cell viability assay.

[17] = system: 8-MG-BA; type: functional, cell-based, Homo sapiens; details: Homo sapiens, 8-MG-BA;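 further: growth inhibition of 8-MG-BA cells, read out with a cell viability assay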
Description: SANGER: Inhibition of human 8-MG-BA cell growth in a cell viability assay.

[18] = system: ES5; type: functional, cell-based, Homo sapiens; details: Homo sapiens, ES5;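 further: growth inhibition of human ES5 cells, read out by a cell viability assay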
Description: SANGER: Inhibition of human ES5 cell growth in a cell viability assay.

[19] = system: TE-9; type: functional, cell-based, Homo sapiens; details: Homo sapiens, TE-9;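 further: cell growth inhibition, measured with a cell viability readout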
Description: SANGER: Inhibition of human TE-9 cell growth in a cell viability assay.

[20] = system: HCC2157; type: functional, cell-based, Homo sapiens; details: Homo sapiens, HCC2157;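 further: growth inhibition of the cancer cell line, read out as cell viability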
Description: SANGER: Inhibition of human HCC2157 cell growth in a cell viability assay.

[21] = system: LS-513; type: functional, cell-based, Homo sapiens; details: Homo sapiens, LS-513
Description: SANGER: Inhibition of human LS-513 cell growth in a cell viability assay.

[22] = system: LU-134-A; type: functional, cell-based, Homo sapiens; details: Homo sapiens, LU-134-A
Description: SANGER: Inhibition of human LU-134-A cell growth in a cell viability assay.

[23] = system: JVM-3; type: functional, cell-based, Homo sapiens; details: Homo sapiens, JVM-3;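 further: growth inhibition of human JVM-3 cells, read out with a cell viability assay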
Description: SANGER: Inhibition of human JVM-3 cell growth in a cell viability assay.

[24] = system: Mo; type: functional, cell-based, Homo sapiens; details: Homo sapiens, Mo
Description: SANGER: Inhibition of human Mo-T cell growth in a cell viability assay.

[25] = system: NOS-1; type: functional, cell-based, Homo sapiens; details: Homo sapiens, NOS-1;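 further: growth inhibition of the human NOS-1 cell line, read out with a cell viability assay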
Description: SANGER: Inhibition of human NOS-1 cell growth in a cell viability assay.

[26] = system: NCI-H226; type: functional, cell-based, Homo sapiens; details: Homo sapiens, NCI-H226;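 further: cell viability read-out used to gauge growth inhibition of the cells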
Description: SANGER: Inhibition of human NCI-H226 cell growth in a cell viability assay.

[27] = system: LOX IMVI; type: functional, cell-based, Homo sapiens; details: Homo sapiens, LOX IMVI
Description: SANGER: Inhibition of human LOXIMVI cell growth in a cell viability assay.

[28] = system: COLO-320-HSR; type: functional, cell-based, Homo sapiens; details: Homo sapiens, COLO-320-HSR;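 further: growth inhibition of COLO-320-HSR cells, determined with a cell viability assay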
Description: SANGER: Inhibition of human COLO-320-HSR cell growth in a cell viability assay.

[29] = system: LB996-RCC; type: functional, cell-based, Homo sapiens; details: Homo sapiens, LB996-RCC
Description: SANGER: Inhibition of human LB996-RCC cell growth in a cell viability assay.

[30] = system: KGN; type: functional, cell-based, Homo sapiens; details: Homo sapiens, KGN;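 further: growth inhibition of KGN cells, read out with a cell viability assay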
Description: SANGER: Inhibition of human KGN cell growth in a cell viability assay.

[31] = system: NCI-H747; type: functional, cell-based, Homo sapiens; details: Homo sapiens, NCI-H747;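 further: growth inhibition of human NCI-H747 cells, read out by a cell viability assay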
Description: SANGER: Inhibition of human NCI-H747 cell growth in a cell viability assay.

[32] = system: TE-11; type: functional, cell-based; details: Homo sapiens;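 further: growth inhibition of human TE-11 cells, read out by a cell viability assay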
Description: SANGER: Inhibition of human TE-11 cell growth in a cell viability assay.

[33] = system: D-263MG; type: functional, cell-based, Homo sapiens; details: Homo sapiens, D-263MG
Description: SANGER: Inhibition of human D-263MG cell growth in a cell viability assay.

[34] = system: NTERA-2-cl-D1; type: functional, cell-based, Homo sapiens; details: Homo sapiens, NTERA-2-cl-D1;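 further: inhibition of cell growth, measured with a cell viability assay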
Description: SANGER: Inhibition of human NTERA-S-cl-D1 cell growth in a cell viability assay.

[35] = system: HL-60; type: functional, cell-based, Homo sapiens; details: Homo sapiens, HL-60;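 further: growth inhibition of human HL-60 cells, read out with a cell viability assay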
Description: SANGER: Inhibition of human HL-60 cell growth in a cell viability assay.

[36] = system: ES7; type: functional, cell-based, Homo sapiens; details: Homo sapiens, ES7;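 further: growth inhibition of cultured human ES7 cells, read out as cell viability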
Description: SANGER: Inhibition of human ES7 cell growth in a cell viability assay.

[37] = system: OS-RC-2; type: functional, cell-based, Homo sapiens; details: Homo sapiens, OS-RC-2;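 further: growth inhibition of human OS-RC-2 cells, measured by a cell viability assay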
Description: SANGER: Inhibition of human OS-RC-2 cell growth in a cell viability assay.

[38] = system: KINGS-1; type: functional, cell-based, Homo sapiens; details: Homo sapiens, KINGS-1;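 further: cell viability assay measuring suppression of KINGS-1 cell growth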
Description: SANGER: Inhibition of human KINGS-1 cell growth in a cell viability assay.

[39] = system: SW872; type: functional, cell-based, Homo sapiens; details: Homo sapiens, SW872;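 further: growth inhibition of SW872 cells, read out by a viability assay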
Description: SANGER: Inhibition of human SW872 cell growth in a cell viability assay.

[40] = system: MZ7-mel; type: functional, cell-based, Homo sapiens; details: Homo sapiens, MZ7-mel;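 further: growth inhibition of human MZ7-mel cells, measured by a cell viability assay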
Description: SANGER: Inhibition of human MZ7-mel cell growth in a cell viability assay.

[41] = system: SF-539; type: functional, cell-based, Homo sapiens; details: Homo sapiens, SF-539;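 further: Read-out is a cell viability assay, with IC50 reflecting inhibition of cell growth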
Description: SANGER: Inhibition of human SF539 cell growth in a cell viability assay.

[42] = system: KE-37; type: functional, cell-based, Homo sapiens; details: Homo sapiens, KE-37;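 further: growth inhibition of KE-37 cells, read out with a cell viability assay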
Description: SANGER: Inhibition of human KE-37 cell growth in a cell viability assay.

[43] = system: QIMR-WIL; type: functional, cell-based, Homo sapiens; details: Homo sapiens, QIMR-WIL;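 further: growth inhibition of QIMR-WIL cells, read out with a cell viability assay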
Description: SANGER: Inhibition of human QIMR-WIL cell growth in a cell viability assay.

[44] = system: NOMO-1; type: functional, cell-based, Homo sapiens; details: Homo sapiens, NOMO-1;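 further: growth inhibition of human NOMO-1 cells measured by a cell viability assay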
Description: SANGER: Inhibition of human NOMO-1 cell growth in a cell viability assay.

[45] = system: KG-1; type: functional, cell-based, Homo sapiens; details: Homo sapiens, KG-1;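 further: growth inhibition of KG-1 cells, read out by a cell viability assay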
Description: SANGER: Inhibition of human KG-1 cell growth in a cell viability assay.

[46] = system: NCI-H1650; type: functional, cell-based, Homo sapiens; details: Homo sapiens, NCI-H1650;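 further: growth inhibition of human NCI-H1650 cells measured by a cell viability assay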
Description: SANGER: Inhibition of human NCI-H1650 cell growth in a cell viability assay.

[47] = system: JVM-2; type: functional, cell-based, Homo sapiens; details: Homo sapiens, JVM-2;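 further: growth inhibition of JVM-2 cells determined by a cell viability assay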
Description: SANGER: Inhibition of human JVM-2 cell growth in a cell viability assay.

[48] = system: ML-2; type: functional, cell-based, Homo sapiens; details: Homo sapiens, ML-2;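 further: growth inhibition of ML-2 cells, measured with a cell viability readout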
Description: SANGER: Inhibition of human ML-2 cell growth in a cell viability assay.

[49] = system: KU812 cell line; type: functional, cell-based, Homo sapiens; details: Homo sapiens, KU812;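 further: growth inhibition of KU812 cells, read out with a cell viability assay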
Description: SANGER: Inhibition of human KU812 cell growth in a cell viability assay.

[50] = system: BV-173; type: functional, cell-based, Homo sapiens; details: Homo sapiens, BV-173
Description: SANGER: Inhibition of human BV-173 cell growth in a cell viability assay.

## O=C(NCCCNc1nc(Nc2cccc(NC(=O)N3CCCC3)c2)ncc1I)c1cccs1 [BX-795]
[1]
  IC50: > 5 µM
[2]
  IC50: 2790 nM
[3]
  IC50: 2240 nM
[4]
  IC50: 843 nM
[5]
  IC50: > 5 µM
[6]
  IC50: 4.19 µM
[7]
  IC50: > 5000 nM
[8]
  IC50: > 5000 nM
[9]
  IC50: > 5000 nM
[10]
  IC50: 4650 nM
[11]
  IC50: 2800 nM
[12]
  IC50: > 5 µM
[13]
  IC50: > 5000 nM
[14]
  IC50: > 5000 nM
[15]
  IC50: > 5000 nM
[16]
  IC50: 4.64 µM
[17]
  IC50: 1960 nM
[18]
  IC50: 1190 nM
[19]
  IC50: > 5000 nM
[20]
  IC50: > 5000 nM
[21]
  IC50: > 5000 nM
[22]
  IC50: 3.43 µM
[23]
  IC50: 1860 nM
[24]
  IC50: > 5000 nM
[25]
  IC50: > 5000 nM
[26]
  IC50: > 5 µM
[27]
  IC50: 1510 nM
[28]
  IC50: > 5000 nM
[29]
  IC50: 4510 nM
[30]
  IC50: 2230 nM
[31]
  IC50: > 5000 nM
[32]
  IC50: 1650 nM
[33]
  IC50: 2380 nM
[34]
  IC50: 1080 nM
[35]
  IC50: 2540 nM
[36]
  IC50: 836 nM
[37]
  IC50: > 5000 nM
[38]
  IC50: 3.7 µM
[39]
  IC50: 2710 nM
[40]
  IC50: > 5000 nM
[41]
  IC50: 3.74 µM
[42]
  IC50: 3.1 µM
[43]
  IC50: 2290 nM
[44]
  IC50: > 5000 nM
[45]
  IC50: 2280 nM
[46]
  IC50: > 5 µM

## CS(=O)(=O)N1CCN(Cc2cc3nc(-c4cccc5[nH]ncc45)nc(N4CCOCC4)c3s2)CC1 [PICTILISIB]
[1]
  IC50: > 4 µM
[2]
  IC50: > 4000 nM
[3]
  IC50: 1610 nM
[4]
  IC50: 811 nM
[5]
  IC50: > 4 µM
[6]
  IC50: > 4 µM
[7]
  IC50: > 4000 nM
[8]
  IC50: > 4000 nM
[9]
  IC50: > 4000 nM
[10]
  IC50: 111 nM
[11]
  IC50: 2050 nM
[12]
  IC50: > 4 µM
[13]
  IC50: > 4000 nM
[14]
  IC50: > 4000 nM
[15]
  IC50: > 4000 nM
[16]
  IC50: > 4 µM
[17]
  IC50: > 4000 nM
[18]
  IC50: 50.2 nM
[19]
  IC50: > 4000 nM
[20]
  IC50: 2330 nM
[21]
  IC50: > 4000 nM
[22]
  IC50: > 4 µM
[23]
  IC50: 1650 nM
[24]
  IC50: > 4000 nM
[25]
  IC50: 212 nM
[26]
  IC50: > 4 µM
[27]
  IC50: 2040 nM
[28]
  IC50: > 4000 nM
[29]
  IC50: 1220 nM
[30]
  IC50: > 4000 nM
[31]
  IC50: > 4000 nM
[32]
  IC50: > 4000 nM
[33]
  IC50: 718 nM
[35]
  IC50: 426 nM
[36]
  IC50: 342 nM
[37]
  IC50: > 4000 nM
[38]
  IC50: > 4 µM
[39]
  IC50: 728 nM
[40]
  IC50: > 4000 nM
[41]
  IC50: > 4 µM
[42]
  IC50: > 4 µM
[43]
  IC50: 865 nM
[44]
  IC50: > 4000 nM
[45]
  IC50: > 4000 nM
[46]
  IC50: > 4 µM

## CC(C)C[C@H](NC(=O)[C@H](Cc1ccccc1)NC(=O)c1cnccn1)B(O)O [BORTEZOMIB]
[2]
  IC50: 1.01 nM
[3]
  IC50: 0.693 nM
[47]
  IC50: 7.28 nM
[4]
  IC50: 0.4 nM
[5]
  IC50: > 0.02 µM
[6]
  IC50: 0.0132 µM
[7]
  IC50: 4.91 nM
[8]
  IC50: 3.49 nM
[9]
  IC50: 3.06 nM
[10]
  IC50: 2.13 nM
[11]
  IC50: > 20 nM
[12]
  IC50: < 7.81e-05 µM
[13]
  IC50: 4.25 nM
[14]
  IC50: 1.13 nM
[15]
  IC50: 0.48 nM
[16]
  IC50: 0.00181 µM
[17]
  IC50: 0.25 nM
[18]
  IC50: 10.4 nM
[19]
  IC50: 0.182 nM
[20]
  IC50: > 20 nM
[21]
  IC50: 0.739 nM
[22]
  IC50: 0.00739 µM
[23]
  IC50: 13 nM
[24]
  IC50: 2.74 nM
[25]
  IC50: 2.11 nM
[26]
  IC50: > 0.02 µM
[27]
  IC50: 3.5 nM
[48]
  IC50: 0.821 nM
[28]
  IC50: 3.92 nM
[29]
  IC50: 3.4 nM
[30]
  IC50: 2.15 nM
[31]
  IC50: 0.539 nM
[33]
  IC50: 0.807 nM
[34]
  IC50: 0.243 nM
[35]
  IC50: 4.67 nM
[36]
  IC50: 0.766 nM
[37]
  IC50: 0.44 nM
[38]
  IC50: 0.000722 µM
[39]
  IC50: 0.996 nM
[40]
  IC50: 1.09 nM
[49]
  IC50: 2.42 nM
[41]
  IC50: > 0.02 µM
[50]
  IC50: > 20 nM
[42]
  IC50: 0.00213 µM
[43]
  IC50: 0.889 nM
[44]
  IC50: 4.33 nM
[45]
  IC50: 7.94 nM
[46]
  IC50: > 0.02 µM
